Tests used:
Assay type in all cases: functional
SK-MEL-28 = test: Growth inhibition of human SK-MEL-28 cells incubated for 48 hrs by sulforhodamine B assay; settings: SK-MEL-28, 48 h
Hs-578T = test: Growth inhibition of human Hs 578T cells assessed as cell growth at 10^-6 M incubated for 48 hrs by sulforhodamine B assay relative to control; settings: read-out: Activity
NCI-H226 [1] = test: Growth inhibition of human NCI-H226 cells assessed as cell growth at 10^-7 M incubated for 48 hrs by sulforhodamine B assay relative to control; settings: NCI-H226, 48 h, read-out: Activity
HL-60 = test: Induction of apoptosis in human HL60 cells assessed as necrotic cells by propidium iodide/Annexin V staining based flow cytometry (reference value: 0.34%)
MDA-MB-231 = test: Growth inhibition of human MDA-MB-231 cells assessed as cell growth at 10^-7 M incubated for 48 hrs by sulforhodamine B assay relative to control; settings: MDA-MB-231, 48 h, read-out: Activity
SNB-19 = test: Growth inhibition of human SNB19 cells assessed as cell growth at 10^-8 M incubated for 48 hrs by sulforhodamine B assay relative to control; settings: SNB-19, 48 h, read-out: Activity
OVCAR-3 = test: Growth inhibition of human OVCAR3 cells assessed as cell growth at 10^-5 M incubated for 48 hrs by sulforhodamine B assay relative to control; settings: OVCAR-3, 48 h, read-out: Activity
HOP-62 = test: Growth inhibition of human HOP62 cells assessed as cell growth at 10^-7 M incubated for 48 hrs by sulforhodamine B assay relative to control; settings: HOP-62, 48 h, read-out: Activity
LOX IMVI = test: Growth inhibition of human LOXIMVI cells assessed as cell growth at 10^-5 M incubated for 48 hrs by sulforhodamine B assay relative to control; settings: read-out: Activity
786-0 = test: Growth inhibition of human 786-0 cells assessed as cell growth at 10^-5 M incubated for 48 hrs by sulforhodamine B assay relative to control; settings: 786-0, 48 h, read-out: Activity
HCC 2998 [2] = test: Growth inhibition of human HCC2998 cells incubated for 48 hrs by sulforhodamine B assay; settings: HCC 2998, 48 h
MDA-MB-435 [3] = test: Induction of apoptosis in human MDA-MB-435 cells assessed as early apoptotic cells by propidium iodide/Annexin V staining based flow cytometry (reference value: 0.25%)
SK-MEL-2 = test: Growth inhibition of human SK-MEL-2 cells assessed as cell growth at 10^-8 M incubated for 48 hrs by sulforhodamine B assay relative to control; settings: SK-MEL-2, 48 h, read-out: Activity
MDA-MB-435 [4] = test: Induction of apoptosis in human MDA-MB-435 cells assessed as live cells by propidium iodide/Annexin V staining based flow cytometry (reference value: 97.4%)
SR = test: Growth inhibition of human SR cells assessed as cell growth at 10^-4 M incubated for 48 hrs by sulforhodamine B assay relative to control; settings: read-out: Activity
OVCAR-4 = test: Growth inhibition of human OVCAR4 cells incubated for 48 hrs by sulforhodamine B assay; settings: OVCAR-4, 48 h
A549 = test: Growth inhibition of human A549/ATCC cells assessed as cell growth at 10^-4 M incubated for 48 hrs by sulforhodamine B assay relative to control; settings: A549, 48 h, read-out: Activity
KM12 = test: Growth inhibition of human KM12 cells assessed as cell growth at 10^-8 M incubated for 48 hrs by sulforhodamine B assay relative to control; settings: KM12, 48 h, read-out: Activity
SF-539 = test: Growth inhibition of human SF539 cells incubated for 48 hrs by sulforhodamine B assay; settings: SF-539, 48 h
SNB-75 = test: Growth inhibition of human SNB75 cells assessed as cell growth at 10^-5 M incubated for 48 hrs by sulforhodamine B assay relative to control; settings: SNB-75, 48 h, read-out: Activity
DU-145 = test: Growth inhibition of human DU145 cells assessed as cell growth at 10^-8 M incubated for 48 hrs by sulforhodamine B assay relative to control; settings: DU-145, 48 h, read-out: Activity
CCRF-CEM = test: Growth inhibition of human CCRF-CEM cells assessed as cell growth at 10^-4 M incubated for 48 hrs by sulforhodamine B assay relative to control; settings: read-out: Activity
NCI-H226 [5] = test: Growth inhibition of human NCI-H226 cells assessed as cell growth at 10^-8 M incubated for 48 hrs by sulforhodamine B assay relative to control; settings: NCI-H226, 48 h, read-out: Activity
NCI-H322M = test: Growth inhibition of human NCI-H322M cells assessed as cell growth at 10^-6 M incubated for 48 hrs by sulforhodamine B assay relative to control; settings: read-out: Activity
MDA-MB-435 [6] = test: Growth inhibition of human MDA-MB-435 cells incubated for 48 hrs by sulforhodamine B assay; settings: MDA-MB-435, 48 h
OVCAR-5 = test: Growth inhibition of human OVCAR5 cells assessed as cell growth at 10^-7 M incubated for 48 hrs by sulforhodamine B assay relative to control; settings: OVCAR-5, 48 h, read-out: Activity
MDA-MB-435 [7] = test: Growth inhibition of human MDA-MB-435 cells assessed as cell growth at 10^-7 M incubated for 48 hrs by sulforhodamine B assay relative to control; settings: MDA-MB-435, 48 h, read-out: Activity
K562 = test: Growth inhibition of human K562 cells assessed as cell growth at 10^-8 M incubated for 48 hrs by sulforhodamine B assay relative to control; settings: K562, 48 h, read-out: Activity
HCC 2998 [8] = test: Growth inhibition of human HCC2998 cells assessed as cell growth at 10^-4 M incubated for 48 hrs by sulforhodamine B assay relative to control; settings: HCC 2998, 48 h, read-out: Activity
MCF7 = test: Growth inhibition of human MCF7 cells assessed as cell growth at 10^-6 M incubated for 48 hrs by sulforhodamine B assay relative to control; settings: MCF7, 48 h, read-out: Activity
[9] = read-out: LC50 (the source's name)
[10] = read-out: pLC50 (the source's name) (converted)

CCS/C(Nc1ccccc1)=C(\C#N)C(=O)Nc1ccc(OC)cc1
GI50 (SK-MEL-28; read-out: GI50): 15.3 µM | CC50 (SK-MEL-28; [9]): > 100 µM | TGI (SK-MEL-28; read-out: TGI): > 100 µM | GI50 (SK-MEL-28; read-out: pGI50 (converted)): 15.5 µM | CC50 (SK-MEL-28; [10]): > 100 µM | TGI (SK-MEL-28; read-out: pTGI): > 100 µM | growth at 1 µM (Hs-578T): 84% | growth at 0.1 µM (NCI-H226 [1]): 86% | Activity (HL-60): 1.98% | growth at 0.1 µM (MDA-MB-231): 94% | growth at 0.01 µM (SNB-19): 98% | growth at 10 µM (OVCAR-3): -6% | growth at 0.1 µM (HOP-62): 84% | growth at 10 µM (LOX IMVI): 40% | growth at 10 µM (786-0): 30% | GI50 (HCC 2998 [2]; read-out: GI50): 6.56 µM | CC50 (HCC 2998 [2]; [9]): > 100 µM | TGI (HCC 2998 [2]; read-out: TGI): > 100 µM | GI50 (HCC 2998 [2]; read-out: pGI50 (converted)): 6.61 µM | CC50 (HCC 2998 [2]; [10]): > 100 µM | TGI (HCC 2998 [2]; read-out: pTGI): > 100 µM | Activity (MDA-MB-435 [3]): 4.61% | growth at 0.01 µM (SK-MEL-2): 106% | Activity (MDA-MB-435 [4]): 85.55% | growth at 100 µM (SR): 16% | GI50 (OVCAR-4; read-out: GI50): 7.61 µM | CC50 (OVCAR-4; [9]): > 100 µM | TGI (OVCAR-4; read-out: TGI): > 100 µM | GI50 (OVCAR-4; read-out: pGI50 (converted)): 7.59 µM | CC50 (OVCAR-4; [10]): > 100 µM | TGI (OVCAR-4; read-out: pTGI): > 100 µM | growth at 100 µM (A549): 15% | growth at 0.01 µM (KM12): 100% | GI50 (SF-539; read-out: GI50): 1.96 µM | CC50 (SF-539; [9]): 52.9 µM | TGI (SF-539; read-out: TGI): 4.81 µM | GI50 (SF-539; read-out: pGI50 (converted)): 1.95 µM | CC50 (SF-539; [10]): 52.5 µM | TGI (SF-539; read-out: pTGI (converted)): 4.79 µM | growth at 10 µM (SNB-75): -13% | growth at 0.01 µM (DU-145): 101% | growth at 100 µM (CCRF-CEM): 7% | growth at 0.01 µM (NCI-H226 [5]): 95% | growth at 1 µM (NCI-H322M): 89% | GI50 (MDA-MB-435 [6]; read-out: GI50): 0.37 µM | CC50 (MDA-MB-435 [6]; [9]): > 100 µM | TGI (MDA-MB-435 [6]; read-out: TGI): 1.89 µM | GI50 (MDA-MB-435 [6]; read-out: pGI50 (converted)): 0.372 µM | CC50 (MDA-MB-435 [6]; [10]): > 100 µM | TGI (MDA-MB-435 [6]; read-out: pTGI (converted)): 1.91 µM | growth at 0.1 µM (OVCAR-5): 95% | growth at 0.1 µM (MDA-MB-435 [7]): 91% | growth at 0.01 µM (K562): 106% | growth at 100 µM (HCC 2998 [8]): 7% | growth at 1 µM (MCF7): 77%

From ChEMBL document CHEMBL4145553, “Design, synthesis, and biological evaluation of novel amide and hydrazide based thioether analogs targeting Histone deacteylase (HDAC) enzymes” (Eur J Med Chem, 2018)
